IC50 data for 3 compounds are collected here from US11242334B2, “Heterocyclic compounds as kinase inhibitors, compositions comprising the heterocyclic compound, and methods of use thereof” (JS INNOPHARM (SHANGHAI) LTD, priority 2017, dated 2022).

Molecules are shown by their SMILES. pIC50: −log10 of the molar value.

In one experiment the target is T1, human ERK2 (Homo sapiens, UniProt P28482).
T1 construct: recombinantly expressed as GST-tagged full-length protein purified from E. coli; GST; purchased Invitrogen PV3311; host or cells: E. coli
As to the kind of experiment: LanthaScreen TR-FRET enzymatic assay, ERK2. The following applies: IC50 values of ERK2 biochemical activity; 5 μM ATP, 400 nM ATF2-GFP substrate. The procedure, abridged: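 GST-tagged full-length ERK2 from E. coli, activated with MAP2K1, was used at 20 ng/ml with 400 nM GFP-ATF2(19-96) and 5 μM ATP (near Km). Compound was pre-incubated 15 min, and the reaction ran 1 h at room temperature. pThr71 was detected by Tb-antibody TR-FRET ratio, with IC50 from sigmoid fitting against 1% DMSO.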

For the next experiment, the system named is Colo205 cell line. Kind of experiment: Colo205 cell proliferation assay (MTT assay, WST-8 readout). Type of experiment: cell-based. The conditions noted are these: Homo sapiens; IC50 values of growth inhibition in Colo 205 cells; 72 hours. The procedure, abridged:
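Colo205 cells were seeded at 5,000 cells/well in RPMI-1640 with 10% FBS and attached for 24 h at 37° C. They were then exposed for 72 h to compound at final 50 μM to 0.005 μM (0.5% DMSO). Viability was read as WST-8 absorbance at 450 nm after 2 h, and IC50 of growth inhibition was determined.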

T1 sequence (P28482 whole entry): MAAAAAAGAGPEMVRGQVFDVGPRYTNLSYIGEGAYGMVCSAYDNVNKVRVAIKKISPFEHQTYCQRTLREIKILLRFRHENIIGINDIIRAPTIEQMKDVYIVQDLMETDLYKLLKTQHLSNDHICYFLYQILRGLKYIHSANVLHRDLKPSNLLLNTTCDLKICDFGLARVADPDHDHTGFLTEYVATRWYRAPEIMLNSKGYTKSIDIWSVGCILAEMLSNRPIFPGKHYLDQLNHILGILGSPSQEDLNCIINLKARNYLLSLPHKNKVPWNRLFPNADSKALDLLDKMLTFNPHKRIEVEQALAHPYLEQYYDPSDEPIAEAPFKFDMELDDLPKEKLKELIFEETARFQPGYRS

Take `O=c1cc(-c2ccc3[nH]nc(C4CCOCC4)c3c2)ccn1Cc1ccnc(C(F)(F)F)c1` [Example 147, 4-(3-(tetrahydro-2H-pyran-4-yl)-1H-indazol-5-yl)-1-((2-(trifluoromethyl)pyridin-4-yl)methyl)pyriidn-2(1H)-one]: the pIC50 was greater than 8.00 against human ERK2 and no less than 6.30 in the experiment with Colo205 cell line.

For `O=c1cc(-c2ccc3[nH]nc([C@H]4CC[C@H](O)CC4)c3c2)ccn1Cc1ccnc(C(F)(F)F)c1` [Example 148, 4-(3-((1r,4r)-4-hydroxycyclohexyl)-1H-indazol-5-yl)-1-((2-(trifluoromethyl)pyridin-4-yl)methyl)pyridin-2(1H)-one], the negative logarithm of the IC50 (pIC50) against human ERK2 is greater than 8.00; in the experiment on Colo205 cell line it was 5.30 to 6.00.

With `O=c1cc(-c2ccc3[nH]nc([C@H]4CC[C@@H](O)CC4)c3c2)ccn1Cc1ccnc(C(F)(F)F)c1` [Example 149, 4-(3-((1s,4s)-4-hydroxycyclohexyl)-1H-indazol-5-yl)-1-((2-(trifluoromethyl)pyridin-4-yl)methyl)pyridin-2(1H)-one], the pIC50 is 7.30 to 8.00 on human ERK2 and less than 5.30 with Colo205 cell line.
